Consider six molecules from patent publication US9012647B2, “Nitroxide modified non-steroidal anti-inflammatory compounds and uses thereof in the treatment and prevention of diseases or disorders” (The United States of America, as Represented by the …, priority 2011, dated 2015).

The conditions of data set [1]: previous reports at pH 7.4; cited from earlier work.
For data set [2] the following is noted: Krishna et al. 1992, cited from earlier work; for oxidation potential Eox: vs. NHE.
For data set [3] the following is noted: Hahn et al. 1992; cited from earlier work.
A short description of data set [4]: Cyclic voltammetry (oxidation potential). Format: physicochemical. As to the method:
Nitroxides undergo one electron reduction and oxidation, which provides their antioxidant characteristics. Cyclic Voltammetry (CV) measurements of the nitroxide-NSAIDs were taken with an EG Potensiostat/Galvanostat Model 273A, from AMETEK Princeton Applied Research (Oak Ridge, Tenn.). Measurements were performed at room temperature in PBS or 50% organic solvents, using the platinum auxiliary electrode and Ag/AgCl (saturated KCl) reference electrode.

Data set [5] in a line: Maximum tolerated dose, IP injection. Format: in vivo. The following applies: nude mice, monitored up to 24 h, death as end point; for MTD at 24 h: female, athymic nude, mouse, in vivo. The procedure:
All animal experiments were carried out in compliance with the Guide for the Care and Use of Laboratory Animal Resources (National Research Council, 1996) and were approved by the National Cancer Institute Animal Care and Use Committee. Female athymic nude mice were supplied at 6 weeks of age by the Frederick Cancer Research Center and were housed five per cage in a climate-controlled environment. […] Each animal was weighed individually on the same day as the intraperitoneal (IP) injection. Different dosages were used to determine the maximum tolerated dose to be given to the animals. Each animal was monitored for up to 24 h and death was the end point of the experiment.

A further data set concerns PGE2 production. Nature of the data set: PGE2 ELISA in A549 cells stimulated with arachidonic acid. The following applies: Table 1B; for activity at 10 µg/mL / activity at 100 µg/mL: Homo sapiens, A549, read-out: PGE-2 % of control; for activity at 10 µg/mL / activity at 100 µg/mL / PGE-2 % of control: control 42 ± 3 pg ml^−1; for PGE-2: control 42 ± 3, mean ± S.D., n=3. Format: cell-based.

For another data set, the system named is LTB4 formation. Nature of the data set: Leukotriene B4 ELISA in A549 cells. Format: cell-based. The following applies: for activity at 10 µg/mL / activity at 100 µg/mL: Homo sapiens, A549; for activity at 10 µg/mL / activity at 100 µg/mL / LTB4 / LTB4 % of control: Table 2B; for activity at 10 µg/mL / activity at 100 µg/mL / LTB4 % of control: control 100 ± 1 pg ml^−1; for LTB4: control 100 ± 1, mean ± S.D., n=3; for inhibition of LTB4 formation: at 10 μg ml^−1 or 100 μg ml^−1. As to the method:
The A549 cell line was grown in Dulbecco's Modified Eagle Medium (DMEM) also supplemented with 10% heat inactivated fetal bovine serum and penicillin-streptomycin. […] The media was changed twice a week.
PGE2 was measured by enzyme enzyme-linked immunosorbent assay (ELISA) (Cayman Chemical, Ann Arbor, Mich.). (1) or (2) was dissolved in DMSO at a concentration of 10 mg ml^−1 for the in vitro experiments. A549 cells in 24 well plates were treated with the compound for 30 min., then arachidonic acid (20 μg ml^−1) was added at 37° C. for 5 min. The samples were frozen at −80° C. until assayed for PGE2. A 100 μl sample was added to EIA buffer (900 μl). Diluted sample (25 μl) was then added to a 96 well plate. The samples were incubated overnight at 4° C. The plate was then washed 5 times ([…]) and […] was added. The absorbance at 450 nm was determined in an ELISA reader. Tables 1A-1B show the mean value±S.D. of 3 determinations. Percents were obtained using the formula: %: sample pg/ml/control pg/ml×100.
Several recent modified NSAIDs target both prostaglandin as well as leukotriene (Martel-Pelletier et al., Ann. Rheum. Dis., 62:501-09 (2003)). Since nitroxides inhibit lipoxygenase (Rachmilewitz et al., Gut, 35: 1181-88 (1994)), the inhibition of LTB4 in A549 cells by these compounds was evaluated. Leukotriene B4 from A549 cells treated as described above was examined using an ELISA assay kit (Cayman Chemical, Ann Arbor, Mich.; Cat No. 520111) according to the manufacturer's instructions. Tables 2A-2B show the mean value±S.D. of 3 determinations. Percents were obtained using the formula: %: sample pg/ml/control pg/ml×100.
For orientation: In an ELISA, binding on a coated surface is turned into a signal by an enzyme label.

Data set [6] can be described thus: Carrageenan-induced foot paw edema model. The data set is classed as in vivo. The conditions noted are these: dose decreasing the inflammatory response by 50%, n = 4. The procedure:
The in vivo anti-inflammatory activity was evaluated using the carrageenan-induced foot paw edema model reported previously (Winter et al. Proc. Soc. Exp. Biol. Med., 111: 544-47 (1962)).

Data set [7] in a line: Superoxide scavenging: ferricytochrome c reduction, hypoxanthine/xanthine oxidase. The following applies: PBS pH 7.4, 25° C., cyt c 60 μM; read-out: IC50, reduction rate of ferricytochrome c (superoxide scavenging). Format: biochemical.
Procedure: Superoxide was generated from the reaction of hypoxanthine (500 μM) with xanthine oxidase (10 mU) in PBS (pH 7.4, 25° C.) containing the metal chelator diethylenetriaminepentaacetic acid (DTPA, 50 μM). The rate of superoxide formation was assessed by ferricytochrome c (cyt c) (60 μM) reduction (550 nm, ε=21,000 M^−1 cm^−1), as previously described (Wasserman et al., Biochim. Biophys. Acta, 623: 457-60 (1980)). Different drug doses (5-100 μM) were used to scavenge superoxide by the modified nitroxide-NSAIDs.

Structures are written as SMILES. Read-outs that look alike come from different tables or passages of the source.

Procedure for PGE2 production: PGE2 was measured by enzyme enzyme-linked immunosorbent assay (ELISA) (Cayman Chemical, Ann Arbor, Mich.). […] A549 cells in 24 well plates were treated with the compound for 30 min., then arachidonic acid (20 μg ml^−1) was added at 37° C. for 5 min. The samples were frozen at −80° C. until assayed for PGE2. A 100 μl sample was added to EIA buffer (900 μl). Diluted sample (25 μl) was then added to a 96 well plate. The samples were incubated overnight at 4° C. The plate was then washed 5 times (200 μA) and Edman's reagent was added. The absorbance at 450 nm was determined in an ELISA reader. […] Percents were obtained using the formula: %: sample pg/ml/control pg/ml×100.

On to `CC1(C)CC(O)CC(C)(C)N1[O]` [TEMPOL], for which the “rate constant with superoxide” value in data set [1] is 65000 M⁻¹ s⁻¹. Besides, the “oxidation potential Eox” value in data set [2] is listed as 0.810 V. Also, the “tolerance (maximum tolerated dose)” value in [3] was 275 mg/kg.
`COc1ccc2c(c1)c(CC(=O)OC1CC(C)(C)N([O])C(C)(C)C1)c(C)n2C(=O)c1ccc(Cl)cc1` [compound (2), TEMPO-indomethacin]: the “reversibility of cyclic voltammograph” value in [4] is given as “reversible”. In addition, in [4] (in acetonitrile (100 mM tetrabutylammonium chloride), versus Ag/AgCl), the “oxidation potential Eox” value was found to be 1.312 V.
What is called MTD is the highest dose tested that stayed within the study's limit of toxicity. Regarding `CC(=O)Oc1ccccc1C(=O)O` [ASA, acetyl salicylic acid], in data set [5], the MTD at 24 h came out at 100 mg/kg. Moreover, in the data set on PGE2 production (dose 10 μg ml^−1), the activity at 10 µg/mL came out at 107% and the PGE-2 entry is given as “(45 ± 7) pg ml^−1”. Also, in the data set on PGE2 production (dose 100 μg ml^−1), the activity at 100 µg/mL was 23% and the PGE-2 entry is on record as “(10 ± 2) pg ml^−1”. In addition, in the data set on LTB4 formation (dose 10 μg ml^−1), the activity at 10 µg/mL amounted to 64% and the LTB4 result is given as “(64 ± 13) pg ml^−1”. In addition, in the data set on LTB4 formation (dose 100 μg ml^−1), the activity at 100 µg/mL came to 62% and the LTB4 result was “(62 ± 5) pg ml^−1”. Besides, in the data set with LTB4 formation, the “inhibition of LTB4 formation” value was “no inhibition was observed”.
In the case of `CC(=O)Oc1ccccc1C(=O)OC1CC(C)(C)N([O])C(C)(C)C1` [compound (1), TEMPO-aspirin], in data set [4], the “reversibility of cyclic voltammograph” value is on record as “reversible”. The “oxidation potential Eox” value in [4] (in PBS, versus Ag/AgCl) was found to be 0.72 V; in data set [4] (in PBS, vs NHE), 0.83 V.
`COc1ccc2c(c1)c(CC(=O)O)c(C)n2C(=O)c1ccc(Cl)cc1` [IND, indomethacin] yielded an MTD at 24 h in data set [5] of 5 mg/kg. The “Anti-inflammatory ED50” value in [6] was 4.2 mg/kg. For the same molecule, in the data set with PGE2 production (dose 10 μg ml^−1), the activity at 10 µg/mL was 50% and the PGE-2 entry was “(21 ± 3) pg ml^−1”. In the data set on PGE2 production (dose 100 μg ml^−1), the activity at 100 µg/mL worked out at 12% and the PGE-2 result is recorded as “(5 ± 1) pg ml^−1”. Also, in the data set on LTB4 formation (dose 10 μg ml^−1), the activity at 10 µg/mL came to 100% and the LTB4 entry is “(100 ± 10) pg ml^−1”. Also, in the data set on LTB4 formation (dose 100 μg ml^−1), the activity at 100 µg/mL is 82% and the LTB4 entry is given as “(82 ± 9) pg ml^−1”. In the data set with LTB4 formation, the “inhibition of LTB4 formation” value is reported as “no inhibition was observed”.
In general, IC50 refers to the midpoint of a concentration-inhibition curve. Consider `CC1(C)CCCC(C)(C)N1[O]` [TEMPO, 2,2,6,6-Tetramethyl-1-piperidinyloxy], for which the “Maximum Tolerated Dose (MTD)” value in data set [5] worked out at 140 mg/kg. In [7], the half-maximal inhibitory concentration (IC50) was about 50 µM. In addition, the “oxidation potential Eox” value is recorded as 1.0 V in data set [4] (in acetonitrile, same conditions, vs. NHE) and 0.622 V in data set [2]. Moreover, the figures for the “PGE-2 % of control” value in the data set on PGE2 production (dose 10 μg ml^−1) and with PGE2 production (dose 100 μg ml^−1) were 133% and 123%, respectively. Also, the PGE-2 result with PGE2 production (dose 10 μg ml^−1) was “(56 ± 10) pg ml^−1”; in the data set on PGE2 production (dose 100 μg ml^−1), “(52 ± 8) pg ml^−1”. Moreover, in data set [1], the “rate constant with superoxide” value was 120000 M⁻¹ s⁻¹. Besides, the “LTB4 % of control” value in the data set on LTB4 formation (dose 10 μg ml^−1) and with LTB4 formation (dose 100 μg ml^−1) was 100% each time. Moreover, the LTB4 result is on record as “(100 ± 2) pg ml^−1” with LTB4 formation (dose 10 μg ml^−1) and “(100 ± 1) pg ml^−1” in the data set with LTB4 formation (dose 100 μg ml^−1). Moreover, the “inhibition of LTB4 formation” value in the data set on LTB4 formation is listed as “no inhibition was observed”. For the same molecule, the E1/2 in [2] was 197 mV.
